Measurements taken from the supplement of paper PMC10307832.

What follows are cell lines tested with CC(C)C[C@@H](C(=O)N[C@H](C(=O)OC1CCCC1)c1ccccc1)[C@H](O)C(=O)NO [Tosedostat] + C[C@@H](Oc1cc(-c2cnn(C3CCNCC3)c2)cnc1N)c1c(Cl)ccc(F)c1Cl [Crizotinib] (partner 1 µM) (assay: relative viability (nuclei count vs DMSO), 5 days (fraction); higher = more cells survive). Settings: first compound 2 µM.
Method in brief: (§1)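 Relative viability divides the nuclei count in treated wells by that in vehicle wells. Lung cancer cell lines were seeded in 1536-well plates, dosed by pin tool the next day, and fixed and stained after 5 days in one step with final 0.05% Triton X-100, 1% formaldehyde and 1 ug/ml Hoechst. Dosing was a single drug or a fixed anchor-drug dose plus five library-drug doses (not always all listed) in √10 steps, and values are medians of duplicate plates imaged at 4×.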
For NCI-H1915, the relative viability was 0.79. NCI-H661 showed a relative viability of 1.04. With NCI-H1975 the relative viability was 0.802. With 201T the relative viability was 1.09. Cell Line NCI-H2023 has a relative viability of 0.637. HCC-827 gave a relative viability of 0.756. With NCI-H322M the relative viability was 0.71. For NCI-H1437, the relative viability was 0.895. In the case of PC-14, the relative viability is reported as 0.92. Work on CAL-12T yielded a relative viability of 0.661. NCI-H1734 showed a relative viability of 0.656. For EPLC-272H, the relative viability was 0.25. NCI-H3122 showed a relative viability of 0.234. NCI-H2009 showed a relative viability of 0.924. With NCI-H1563 the relative viability was 0.917. NCI-H520 gave a relative viability of 0.846. Work on NCI-H1651 yielded a relative viability of 0.817. In the case of NCI-H1993, the relative viability is reported as 0.685.

Each cell line was assayed with CC(C)C[C@@H](C(=O)N[C@H](C(=O)OC1CCCC1)c1ccccc1)[C@H](O)C(=O)NO [Tosedostat] + C[C@]1(O)C[C@@H](c2nc(-c3ccc4ccc(-c5ccccc5)nc4c3)c3c(N)nccn32)C1 [Linsitinib] (partner 1 µM) in the same assay as above. Settings: first compound 0.02 µM.
Method in brief: as §1
In the case of COR-L23, the relative viability is reported as 1.1. For COR-L 105, the relative viability was 0.841. LU99A gave a relative viability of 0.508. NCI-H460 gave a relative viability of 0.845. With HOP-62 the relative viability was 1.07. HCC-44 gave a relative viability of 0.59. LXF-289 gave a relative viability of 1.02. For BEN, the relative viability was 0.986. HARA gave a relative viability of 0.915. Cell Line HCC-78 has a relative viability of 0.397. With NCI-H647 the relative viability was 1.07. For LCLC-97TM1, the relative viability was 0.181. Cell Line NCI-H2126 has a relative viability of 0.586. A-427 was tested, and the relative viability was 1.14. Cell Line NCI-H650 has a relative viability of 0.853. RERF-LC-KJ showed a relative viability of 0.933. NCI-H1915 was tested, and the relative viability was 1.16. Work on NCI-H661 yielded a relative viability of 0.552. Cell Line NCI-H1975 has a relative viability of 0.958. Work on 201T yielded a relative viability of 0.99. For NCI-H2023, the relative viability was 0.659. HCC-827 was tested, and the relative viability was 0.966. NCI-H322M gave a relative viability of 0.8. Cell Line NCI-H1437 has a relative viability of 1.12. With PC-14 the relative viability was 0.97. Work on CAL-12T yielded a relative viability of 0.728. Cell Line NCI-H1734 has a relative viability of 0.902. In the case of EPLC-272H, the relative viability is reported as 1.06. NCI-H3122 gave a relative viability of 0.993. NCI-H2009 was tested, and the relative viability was 1.2. With NCI-H1563 the relative viability was 1.25. With NCI-H520 the relative viability was 1.13. Work on NCI-H1651 yielded a relative viability of 0.996. For NCI-H1993, the relative viability was 0.669.

Same assay, conditions: first compound 0.06325 µM
With COR-L23 the relative viability was 0.805. COR-L 105 was tested, and the relative viability was 0.876. LU99A gave a relative viability of 0.555. With NCI-H460 the relative viability was 0.84. For HOP-62, the relative viability was 0.977. Cell Line HCC-44 has a relative viability of 0.656. Cell Line LXF-289 has a relative viability of 0.879. In the case of BEN, the relative viability is reported as 0.921. HARA gave a relative viability of 0.8. Cell Line HCC-78 has a relative viability of 0.608. With NCI-H647 the relative viability was 1.2. NCI-H2126 showed a relative viability of 0.682. Cell Line A-427 has a relative viability of 1.12. NCI-H650 gave a relative viability of 0.84. Work on RERF-LC-KJ yielded a relative viability of 0.875. In the case of NCI-H1915, the relative viability is reported as 1.11. NCI-H661 showed a relative viability of 0.592. NCI-H1975 gave a relative viability of 0.988. 201T showed a relative viability of 1.09. In the case of NCI-H2023, the relative viability is reported as 0.619. HCC-827 showed a relative viability of 0.934. NCI-H322M was tested, and the relative viability was 0.902. In the case of NCI-H1437, the relative viability is reported as 1.03. PC-14 was tested, and the relative viability was 0.973. CAL-12T gave a relative viability of 0.762. In the case of NCI-H1734, the relative viability is reported as 0.989. EPLC-272H showed a relative viability of 1.25. With NCI-H3122 the relative viability was 1. In the case of NCI-H2009, the relative viability is reported as 1.12. Cell Line NCI-H1563 has a relative viability of 1.16. In the case of NCI-H520, the relative viability is reported as 0.962. NCI-H1651 showed a relative viability of 0.963. Cell Line NCI-H1993 has a relative viability of 0.698.

Same assay, conditions: first compound 0.2 µM
Work on COR-L23 yielded a relative viability of 0.827. Work on COR-L 105 yielded a relative viability of 0.778. Cell Line LU99A has a relative viability of 0.528. For NCI-H460, the relative viability was 0.857. Cell Line HOP-62 has a relative viability of 0.849. In the case of HCC-44, the relative viability is reported as 0.688. LXF-289 showed a relative viability of 1.02. BEN was tested, and the relative viability was 0.989. For HARA, the relative viability was 0.876. HCC-78 was tested, and the relative viability was 0.429. For NCI-H647, the relative viability was 1.01. Cell Line NCI-H2126 has a relative viability of 0.778. Work on A-427 yielded a relative viability of 1.03. Work on NCI-H650 yielded a relative viability of 0.679. Work on RERF-LC-KJ yielded a relative viability of 0.854. Cell Line NCI-H1915 has a relative viability of 1.11. NCI-H661 showed a relative viability of 0.555. NCI-H1975 showed a relative viability of 0.939. Cell Line 201T has a relative viability of 1.11. In the case of NCI-H2023, the relative viability is reported as 0.594. HCC-827 gave a relative viability of 0.976. Work on NCI-H322M yielded a relative viability of 0.894. NCI-H1437 was tested, and the relative viability was 1. PC-14 gave a relative viability of 0.982. CAL-12T showed a relative viability of 0.739. With NCI-H1734 the relative viability was 0.867. Cell Line EPLC-272H has a relative viability of 0.92. For NCI-H3122, the relative viability was 1.01. Work on NCI-H2009 yielded a relative viability of 1.17. Work on NCI-H1563 yielded a relative viability of 1.26. NCI-H520 gave a relative viability of 0.944. NCI-H1651 gave a relative viability of 1.11. For NCI-H1993, the relative viability was 0.742.

Same assay, conditions: first compound 0.6325 µM
Work on COR-L23 yielded a relative viability of 0.869. With COR-L 105 the relative viability was 0.662. With LU99A the relative viability was 0.561. With NCI-H460 the relative viability was 0.849. In the case of HOP-62, the relative viability is reported as 0.693. HCC-44 was tested, and the relative viability was 0.681. LXF-289 showed a relative viability of 0.946. Work on BEN yielded a relative viability of 1.14. In the case of HARA, the relative viability is reported as 0.969. Cell Line HCC-78 has a relative viability of 0.458. In the case of NCI-H647, the relative viability is reported as 1.12. With LCLC-97TM1 the relative viability was 0.205. In the case of NCI-H2126, the relative viability is reported as 0.677. A-427 gave a relative viability of 1.07. In the case of NCI-H650, the relative viability is reported as 0.656. For RERF-LC-KJ, the relative viability was 0.839. NCI-H1915 was tested, and the relative viability was 1.1. For NCI-H661, the relative viability was 0.494. NCI-H1975 gave a relative viability of 0.754. Cell Line 201T has a relative viability of 1.21. NCI-H2023 gave a relative viability of 0.65. In the case of HCC-827, the relative viability is reported as 0.857. With NCI-H322M the relative viability was 0.877. With NCI-H1437 the relative viability was 0.752. For PC-14, the relative viability was 0.915. CAL-12T gave a relative viability of 0.709. Work on NCI-H1734 yielded a relative viability of 0.913. EPLC-272H was tested, and the relative viability was 0.855. For NCI-H3122, the relative viability was 1.02. NCI-H2009 gave a relative viability of 0.881. For NCI-H1563, the relative viability was 1.29. For NCI-H520, the relative viability was 1.02. In the case of NCI-H1651, the relative viability is reported as 0.875. NCI-H1993 was tested, and the relative viability was 0.703.

Same assay, conditions: first compound 2 µM
COR-L23 showed a relative viability of 0.877. Cell Line COR-L 105 has a relative viability of 0.653. LU99A showed a relative viability of 0.504. Work on NCI-H460 yielded a relative viability of 0.942. HOP-62 showed a relative viability of 0.712. In the case of HCC-44, the relative viability is reported as 0.473. Work on LXF-289 yielded a relative viability of 0.994.
